Experiments:
Format in all cases: cell-based
[1] = target: T1, binding between KRS and AIMP3 (Homo sapiens, UniProt Q15046); experiment: Yeast Two Hybrid specificity test, LexA-KRS / B42-AIMP3 co-transformed yeast cells; details: 1 μL of 20 mM DMSO solution per 200 μL culture; 30° C., 6 days; absorbance 540 nm; non-treated control = 100%
T1 construct: expressed in transfected cells; host or cells: yeast cells (co-transformed)
Protocol: (§1) And also, specificity of the inhibitory activity was evaluated, using the yeast cells cotransformed with the LexA-KRS vector and the B42-AIMP2 vector; and the yeast cells co-transformed with the LexA-KRS vector and the B42-AIMP3 vector, which were respectively prepared according to WO2011/056021. The co-transformation was carried out using the Yeastmaker yeast transformation system2 kit (Clontech), according to the manufacturer's instruction. […] The cultured yeast cells were diluted with the said galactose medium, until the absorbance at 540 nm attains to about 0.15 to 0.2. The diluted culture (200 μL), containing the yeast cells, was added to each well of a 96-well plate. Each test compound was dissolved in dimethyl sulfoxide at a concentration of 20 mM and then the resulting solutions (1 μL) were added to each well. The plate was cultured at 30° C. for 6 days and then the absorbance of each well was measured at 540 nm. The respective yeast cell proliferation rates (%) in the treated samples were calculated in comparison with those of the non-treated control (100%) and the results thereof are shown in Table 1 below.

[2] = target: T2, interaction between the KRS protein and the laminin receptor (LR) (Homo sapiens, UniProt Q15046); experiment: Yeast Two Hybrid inhibition of the interaction between the KRS protein and the laminin receptor (LR); details: 1 μL of 20 mM DMSO solution per 200 μL culture; 30° C., 6 days; absorbance 540 nm; non-treated control = 100%
T2 construct: expressed in transfected cells; host or cells: yeast EGY/SH cells
Protocol: The inhibitory activity against the interaction between the KRS protein and the laminin receptor (LR) was evaluated according to the Yeast Two Hybrid method described in WO2011/056021. According to the disclosures of WO2011/056021, we prepared a vector obtained by cloning the KRS gene in the LexA vector (Clontech) and a vector obtained by cloning the LR gene in the B42 vector (Clontech). The yeast cells, i.e., EGY/SH cells were co-transformed with the LexA-KRS vector and the B42-LR vector. The co-transformation was carried out using the Yeastmaker yeast transformation system2 kit (Clontech), according to the manufacturer's instruction. […] The cultured yeast cells were diluted with the said galactose medium, until the absorbance at 540 nm attains to about 0.15 to 0.2. The diluted culture (200 μL), containing the yeast cells, was added to each well of a 96-well plate. Each test compound was dissolved in dimethyl sulfoxide at a concentration of 20 mM and then the resulting solutions (1 μL) were added to each well. The plate was cultured at 30° C. for 6 days and then the absorbance of the each well was measured at 540 nm.
as §1
When KRS is bound to LR, the trans-activation domain is come close to the DNA-binding domain and the genes for synthesizing essential amino acids are expressed, which leads to normal growth of the transformed yeasts, thereby increasing the absorbance.

[3] = target: T3, binding between KRS and AIMP2 (Homo sapiens, UniProt Q15046); experiment: Yeast Two Hybrid specificity test, LexA-KRS / B42-AIMP2 co-transformed yeast cells; details: 1 μL of 20 mM DMSO solution per 200 μL culture; 30° C., 6 days; absorbance 540 nm; non-treated control = 100%
T3 construct: expressed in transfected cells; host or cells: yeast cells (co-transformed)
Protocol: as §1

[4] = test system: A549 cells; experiment: Cell Migration Assay (transwell, laminin); details: Homo sapiens, laminin 10 μg/mL in lower well, test compounds 0.39˜100 μM, 6 hours at 37° C.
Protocol: Cell migration was measured with a 24-well transwell having a polycarbonate membrane (8.0 μm pore size, Costar) at the bottom of the upper chamber. Each lower well was treated with laminin (10 μg/mL) and test compounds (0.39˜100 μM) along with a serum-free RPMI1640 medium. A549 cells (Korean Cell Line Bank) were suspended in a serum-free RPMI1640 medium at a concentration of 1×10^6 cells/mL and then the test compounds were added thereto at the indicated concentrations. Each resulting solution (100 μL) was added to the upper chamber. The cells were cultured at 37° C. for 6 hours in a CO2 incubator. The upper chamber was taken out and then the cells were fixed with PBS containing 70% methyl alcohol for 10 minutes, followed by washing with PBS twice. The cells were stained with hematoxylin (Sigma) for 10 minutes and then washed with distilled water. The non-migrated cells were removed from the upper portion of the polycarbonate membrane with a cotton swab. The membranes were excised and separated from the chamber, and then mounted to a slide using a gel mount reagent (Biomeda, USA). The migrated cells (attached to the lower face of the membrane) were counted at three randomly selected sites under a microscope (×20). The cell counting was performed with the Image J program. From the counted cell numbers, each IC50 value was calculated by non-linear regression curve fit using the “GraphPad Prism” program.
The cells are pulled by laminin residing in the lower chamber and then passed through the polycarbonate membrane, so as to attach to the lower face of the membrane.

T3 sequence (Q15046 whole entry): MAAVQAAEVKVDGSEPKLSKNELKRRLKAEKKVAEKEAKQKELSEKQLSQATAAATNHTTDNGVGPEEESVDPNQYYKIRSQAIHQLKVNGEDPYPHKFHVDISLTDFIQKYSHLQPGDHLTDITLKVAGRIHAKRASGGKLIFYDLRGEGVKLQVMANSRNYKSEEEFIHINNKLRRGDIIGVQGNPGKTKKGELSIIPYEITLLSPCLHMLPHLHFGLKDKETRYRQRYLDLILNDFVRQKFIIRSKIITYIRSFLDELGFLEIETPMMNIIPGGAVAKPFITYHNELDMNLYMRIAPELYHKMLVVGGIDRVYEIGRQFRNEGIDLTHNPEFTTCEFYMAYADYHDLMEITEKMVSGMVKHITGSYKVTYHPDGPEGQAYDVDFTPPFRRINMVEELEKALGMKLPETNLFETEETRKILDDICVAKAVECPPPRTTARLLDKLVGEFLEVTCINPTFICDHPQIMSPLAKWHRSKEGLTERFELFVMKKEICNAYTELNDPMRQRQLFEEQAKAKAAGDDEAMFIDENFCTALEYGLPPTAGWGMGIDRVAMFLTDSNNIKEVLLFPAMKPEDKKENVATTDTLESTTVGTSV
T1 sequence (Q15046 whole entry): as above
T2 sequence (Q15046 whole entry): as above

SMILES: CC(C(=O)O)n1c(=NC(=O)c2cccc(C(F)(F)F)c2)sc2ccc(F)cc21 (centres unmarked) [Example 355, 2-(5-fluoro-2-((3-(trifluoromethyl)benzoyl)imino)benzo[d]thiazol-3(2H)-yl)propionic acid]
- Yeast cell proliferation rates KRS-AIMP3 (%) [1]: 104.4%
- Yeast cell proliferation rates KRS-LR (%) [2]: 22.1%
- Yeast cell proliferation rates KRS-AIMP2 (%) [3]: 97.2%

SMILES: CCOc1ccc2c(c1)sc(=NC(=O)c1ccc(C)cc1)n2C(CC)C(=O)O (centres unmarked) [Example 7, 2-{6-ethoxy-2-[(4-methylbenzoyl)imino]benzo[d]thiazol-3(2H)-yl}butanoic acid]
- Yeast cell proliferation rates KRS-AIMP3 (%) [1]: 100.1%
- Yeast cell proliferation rates KRS-LR (%) [2]: 36.9%
- Yeast cell proliferation rates KRS-AIMP2 (%) [3]: 106.4%

SMILES: Cc1ccc(C(=O)N=c2sc3ccc(F)cc3n2C(C)C(=O)O)cc1 (centres unmarked) [Example 91, 2-[5-fluoro-2-(4-methylbenzoylimino)benzo[d]thiazol-3(2H)-yl]propionic acid]
- Yeast cell proliferation rates KRS-AIMP3 (%) [1]: 98.5%
- Yeast cell proliferation rates KRS-LR (%) [2]: 27.8%
- Yeast cell proliferation rates KRS-AIMP2 (%) [3]: 116.6%

SMILES: CCC(C(=O)O)n1c(=NC(=O)c2ccc(C)cc2)sc2c(C)cccc21 (centres unmarked) [Example 344, 2-(7-methyl-2-((4-methylbenzoyl)imino)benzo[d]thiazol-3(2H)-yl)butanoic acid]
- Yeast cell proliferation rates KRS-AIMP3 (%) [1]: 102.8%
- Yeast cell proliferation rates KRS-LR (%) [2]: 11.7%
- Yeast cell proliferation rates KRS-AIMP2 (%) [3]: 99.0%

SMILES: CCC(C(=O)O)n1c(=NC(=O)c2ccc(C)cc2)sc2cc3c(cc21)OCO3 (centres unmarked) [Example 237, 2-(6-((4-methylbenzoyl)imino)-[1,3]dioxolo[4′,5′:4,5]benzo[1,2-d]thiazol-7(6H)-yl)butanoic acid]
- Yeast cell proliferation rates KRS-AIMP3 (%) [1]: 114.8%
- Yeast cell proliferation rates KRS-LR (%) [2]: 34.1%
- Yeast cell proliferation rates KRS-AIMP2 (%) [3]: 99.0%

SMILES: Cc1cccc2c1sc(=NC(=O)c1cccc(Cl)c1)n2C(C)C(=O)O (centres unmarked) [Example 353, 2-(2-((3-chlorobenzoyl)imino)-7-methylbenzo[d]thiazol-3(2H)-yl)propionic acid]
- Yeast cell proliferation rates KRS-AIMP3 (%) [1]: 99.5%
- Yeast cell proliferation rates KRS-LR (%) [2]: 28.2%
- Yeast cell proliferation rates KRS-AIMP2 (%) [3]: 89.4%

SMILES: CCC(C(=O)O)n1c(=NC(=O)c2cccc(OC)c2)sc2c(F)cccc21 (centres unmarked) [Example 532]
- Yeast cell proliferation rates KRS-AIMP3 (%) [1]: 97.3%
- Yeast cell proliferation rates KRS-LR (%) [2]: 43.7%
- Yeast cell proliferation rates KRS-AIMP2 (%) [3]: 98.6%

SMILES: CCC(C(=O)O)n1c(=NC(=O)c2ccc(OC)cc2)sc2c(F)cccc21 (centres unmarked) [Example 533]
- Yeast cell proliferation rates KRS-AIMP3 (%) [1]: 98.3%
- Yeast cell proliferation rates KRS-LR (%) [2]: 39.0%
- Yeast cell proliferation rates KRS-AIMP2 (%) [3]: 94.8%

SMILES: CCC(C(=O)O)n1c(=NC(=O)c2ccc(C)cc2)sc2c(F)c(F)ccc21 (centres unmarked) [Example 335, 2-(6,7-difluoro-2-((4-methylbenzoyl)imino)benzo[d]thiazol-3(2H)-yl)butanoic acid]
- Yeast cell proliferation rates KRS-AIMP3 (%) [1]: 105.3%
- Yeast cell proliferation rates KRS-LR (%) [2]: 10.8%
- Yeast cell proliferation rates KRS-AIMP2 (%) [3]: 101.6%

SMILES: CC(C(=O)O)n1c(=NC(=O)c2cccc(Cl)c2)sc2c(F)c(F)ccc21 (centres unmarked) [Example 337, 2-(2-((3-chlorobenzoyl)imino)-6,7-difluorobenzo[d]thiazol-3(2H)-yl)propionic acid]
- Yeast cell proliferation rates KRS-AIMP3 (%) [1]: 100.3%
- Yeast cell proliferation rates KRS-LR (%) [2]: 12.3%
- Yeast cell proliferation rates KRS-AIMP2 (%) [3]: 92.5%

SMILES: CCC(C(=O)O)n1c(=NC(=O)c2ccc(OC)cc2)sc2c(F)c(F)ccc21 (centres unmarked) [Example 585]
- Yeast cell proliferation rates KRS-AIMP3 (%) [1]: 84.0%
- Yeast cell proliferation rates KRS-LR (%) [2]: 46.3%
- Yeast cell proliferation rates KRS-AIMP2 (%) [3]: 95.8%

SMILES: CCC(C(=O)O)n1c(=NC(=O)c2ccc(C)cc2)sc2cccc(OC)c21 (centres unmarked) [Example 8, 2-{4-methoxy-2-[(4-methylbenzoyl)imino]benzo[d]thiazol-3(2H)-yl}butanoic acid]
- Yeast cell proliferation rates KRS-AIMP3 (%) [1]: 84.1%
- Yeast cell proliferation rates KRS-LR (%) [2]: 17.4%
- Yeast cell proliferation rates KRS-AIMP2 (%) [3]: 84.6%

SMILES: CC(C(=O)O)n1c(=NC(=O)c2cccc(Cl)c2)sc2c(F)c(F)c(F)cc21 (centres unmarked) [Example 416, 2-(2-((3-chlorobenzoyl)imino)-5,6,7-trifluorobenzo[d]thiazol-3(2H)-yl)propionic acid]
- Yeast cell proliferation rates KRS-AIMP3 (%) [1]: 99.3%
- Yeast cell proliferation rates KRS-LR (%) [2]: 24.7%
- Yeast cell proliferation rates KRS-AIMP2 (%) [3]: 99.6%

SMILES: CCC(C(=O)O)n1c(=NC(=O)c2cccc(F)c2)sc2c(F)c(F)ccc21 (centres unmarked) [Example 582, 2-(6,7-difluoro-2-((3-fluorobenzoyl)imino)benzo[d]thiazol-3(2H)-yl)butanoic acid]
- Yeast cell proliferation rates KRS-AIMP3 (%) [1]: 93.0%
- Yeast cell proliferation rates KRS-LR (%) [2]: 49.3%
- Yeast cell proliferation rates KRS-AIMP2 (%) [3]: 99.0%

SMILES: CC(C(=O)O)n1c(=NC(=O)c2cccc(C(F)(F)F)c2)sc2ccc(Cl)cc21 (centres unmarked) [Example 359, 2-(5-chloro-2-((3-(trifluoromethyl)benzoyl)imino)benzo[d]thiazol-3(2H)-yl)propionic acid]
- Yeast cell proliferation rates KRS-AIMP3 (%) [1]: 107.0%
- Yeast cell proliferation rates KRS-LR (%) [2]: 21.9%
- Yeast cell proliferation rates KRS-AIMP2 (%) [3]: 101.6%

SMILES: CCC(C(=O)O)n1c(=NC(=O)c2cccc(F)c2)sc2c(Cl)cccc21 (centres unmarked) [Example 543, 2-(7-chloro-2-((3-fluorobenzoyl)imino)benzo[d]thiazol-3(2H)-yl)butanoic acid]
- Yeast cell proliferation rates KRS-AIMP3 (%) [1]: 90.3%
- Yeast cell proliferation rates KRS-LR (%) [2]: 36.1%
- Yeast cell proliferation rates KRS-AIMP2 (%) [3]: 97.1%

SMILES: CC(C(=O)O)n1c(=NC(=O)c2ccc(F)c(F)c2)sc2cc(F)c(F)cc21 (centres unmarked) [Example 463, 2-(2-((3,4-difluorobenzoyl)imino)-5,6-difluorobenzo[d]thiazol-3(2H)-yl)propionic acid]
- Yeast cell proliferation rates KRS-AIMP3 (%) [1]: 93.2%
- Yeast cell proliferation rates KRS-LR (%) [2]: 34.3%
- Yeast cell proliferation rates KRS-AIMP2 (%) [3]: 96.7%

SMILES: CCOc1ccc2c(c1)sc(=NC(=O)c1ccc(F)cc1)n2C(CC)C(=O)O (centres unmarked) [Example 476, 2-(6-ethoxy-2-((4-fluorobenzoyl)imino)benzo[d]thiazol-3(2H)-yl)butanoic acid]
- Yeast cell proliferation rates KRS-AIMP3 (%) [1]: 86.1%
- Yeast cell proliferation rates KRS-LR (%) [2]: 29.6%
- Yeast cell proliferation rates KRS-AIMP2 (%) [3]: 91.0%

SMILES: CCC(C(=O)O)n1c(=NC(=O)c2ccc(OC)cc2)sc2cc(OC(F)(F)F)ccc21 (centres unmarked) [Example 507]
- Yeast cell proliferation rates KRS-AIMP3 (%) [1]: 99.0%
- Yeast cell proliferation rates KRS-LR (%) [2]: 45.9%
- Yeast cell proliferation rates KRS-AIMP2 (%) [3]: 99.3%

SMILES: O=C(O)Cn1c(=NC(=O)c2cccc(Cl)c2)sc2c(Cl)cccc21 [Example 358, 2-(7-chloro-2-((3-chlorobenzoyl)imino)benzo[d]thiazol-3(2H)-yl)acetic acid]
- IC50 [4]: 29.4 µM

SMILES: CCC(C(=O)O)n1c(=NC(=O)c2cccc(Cl)c2)sc2c(C)cccc21 (centres unmarked) [Example 354, 2-(2-((3-chlorobenzoyl)imino)-7-methylbenzo[d]thiazol-3(2H)-yl)butanoic acid]
- Yeast cell proliferation rates KRS-AIMP3 (%) [1]: 106.4%
- Yeast cell proliferation rates KRS-LR (%) [2]: 30.2%
- Yeast cell proliferation rates KRS-AIMP2 (%) [3]: 103.0%

SMILES: Cc1ccc(C(=O)N=c2sc3c(F)cc(F)cc3n2C(C)C(=O)O)cc1 (centres unmarked) [Example 455, 2-(5,7-difluoro-2-((4-methylbenzoyl)imino)benzo[d]thiazol-3(2H)-yl)propionic acid]
- IC50 [4]: 80 µM

Source: US20150011528A1, “PHENYLIMIDE-CONTAINING BENZOTHIAZOLE DERIVATIVE OF ITS SALT AND PHARMACEUTICAL COMPOSITION COMPRISING THE SAME” (YUHAN CORPORATION, priority 2011, published 2015)
